Measured values: ChEMBL document CHEMBL4311969, “Polygala tenuifolia-Acori tatarinowii herbal pair as an inspiration for substituted cinnamic α-asaronol esters: Design, synthesis, anticonvulsant activity, and inhibition of lactate dehydrogenase study” (Eur J Med Chem, 2019)
Values joined by “and” are separate entries in the source; they are usually repeats but may differ in a detail not shown here. Equal values may be shown once. Active and inactive are the calls of the source. No cut-off for these calls is given here.

Columns and labels:
[1] = Drug metabolism in Sprague-Dawley rat assessed as retention time by HPLC/MS analysis; format: ADME
Mus musculus [2] = experiment: Anticonvulsant activity in Kunming mouse assessed as MES-induced hind limb extension at 100 mg/kg, ip administered 0. 5 to 2 hrs before MES stimulation; format: functional, organism-based
Homo sapiens [3] = organism: Homo sapiens; experiment: Inhibition of human LDH5 at 0.5 mM using sodium pyruvate as substrate by UV-VIS spectrophotometry method relative to control
Mus musculus [4] = experiment: Anticonvulsant activity in Kunming mouse assessed as MES-induced hind limb extension at 100 mg/kg, ip administered 3 hrs before MES stimulation; format: functional, organism-based
Mus musculus [5] = experiment: Anticonvulsant activity in Kunming mouse assessed as MES-induced hind limb extension at 100 mg/kg, ip administered 0. 5 to 4 hrs before MES stimulation relative to control; format: functional
[6] = Neurotoxicity against Kunming mouse assessed as time remained in rod at 100 mg/kg, ip administered 0.5 to 2 hrs by rotarod test; format: toxicity, organism-based; conditions: in vivo
Homo sapiens [7] = organism: Homo sapiens; experiment: Inhibition of human LDH1 at 0.5 mM using sodium pyruvate as substrate by UV-VIS spectrophotometry method relative to control
Mus musculus [8] = experiment: Anticonvulsant activity in Kunming mouse assessed as reduction in ScPTZ-induced tonic seizure rate at 100 mg/kg, ip administered 0.5 hrs before ScPTZ stimulation relative to control; format: functional; parameters: scale not given: the % may be the effect or the level left
[9] = Protective index, ratio of TD50 for neurotoxicity against ip dosed Kunming mouse assessed as time remained in rod measured at 0.5 hrs by rotarod test to ED50 for […] activity in ip dosed Kunming mouse assessed as reduction in formalin-induced paw licking administered 0.5 hrs before formalin stimulation; format: toxicity, organism-based; conditions: in vivo, read-out: PI
Mus musculus [10] = experiment: […] activity in ip dosed Kunming mouse assessed as reduction in formalin-induced paw licking administered 0.5 hrs before formalin stimulation; format: functional
Mus musculus [11] = experiment: Anticonvulsant activity in Kunming mouse assessed as reduction in ScPTZ-induced clonic seizure at 100 mg/kg, ip administered 0.5 hrs before ScPTZ stimulation relative to control; format: functional; parameters: scale not given: the % may be the effect or the level left
Mus musculus [12] = experiment: Anticonvulsant activity in Kunming mouse assessed as reduction in ScPTZ-induced seizure at 100 mg/kg, ip administered 0.25 and 1 hrs before ScPTZ stimulation relative to control; format: functional; parameters: scale not given: the % may be the effect or the level left
[13] = Protective index, ratio of TD50 for neurotoxicity against ip dosed Kunming mouse assessed as time remained in rod measured at 0.5 hrs by rotarod test to ED50 for anticonvulsant activity in ip dosed Kunming mouse assessed as reduction in Sc3-MP-induced seizure administered 0.5 hrs before Sc3-MP stimulation; format: toxicity, organism-based; conditions: in vivo, read-out: PI
Mus musculus [14] = experiment: Anticonvulsant activity in Kunming mouse assessed as reduction in Sc3-MP-induced clonic seizure rate at 300 mg/kg, ip administered 0.5 hrs before Sc3-MP stimulation relative to control; format: functional; parameters: scale not given: the % may be the effect or the level left
[15] = Protective index, ratio of TD50 for neurotoxicity against ip dosed Kunming mouse assessed as time remained in rod measured at 0.5 hrs by rotarod test to ED50 for anticonvulsant activity in ip dosed Kunming mouse assessed as MES-induced hind limb extension administered 0.5 hrs; format: toxicity, organism-based; conditions: in vivo, read-out: PI
Mus musculus [16] = experiment: Anticonvulsant activity in Kunming mouse assessed as reduction in Sc3-MP-induced seizure ip dosed measured at 0.5 hrs before Sc3-MP stimulation; format: functional
Mus musculus [17] = experiment: Anticonvulsant activity in Kunming mouse assessed as MES-induced hind limb extension at 50 mg/kg, ip administered 0.5 to 4 hrs before MES stimulation relative to control; format: functional
Mus musculus [18] = experiment: Anticonvulsant activity in Kunming mouse assessed as reduction in Sc3-MP-induced tonic seizure rate at 300 mg/kg, ip administered 0.5 hrs before Sc3-MP stimulation relative to control; format: functional; parameters: scale not given: the % may be the effect or the level left
Mus musculus [19] = experiment: Anticonvulsant activity in Kunming mouse assessed as reduction in ScPTZ-induced tonic seizure rate at 300 mg/kg, ip administered 0.5 hrs before ScPTZ stimulation relative to control; format: functional; parameters: scale not given: the % may be the effect or the level left
[20] = Protective index, ratio of TD50 for neurotoxicity against ip dosed Kunming mouse assessed as time remained in rod measured at 0.5 hrs by rotarod test to ED50 for anticonvulsant activity in ip dosed Kunming mouse assessed as reduction in ScPTZ-induced seizure administered 0.5 hrs before ScPTZ stimulation; format: toxicity, organism-based; conditions: in vivo, read-out: PI
Mus musculus [21] = experiment: Anticonvulsant activity in Kunming mouse assessed as reduction in ScPTZ-induced seizure at 100 mg/kg, ip administered 0.25 to 2 hrs before ScPTZ stimulation relative to control; format: functional; parameters: scale not given: the % may be the effect or the level left
Mus musculus [22] = experiment: Anticonvulsant activity in Kunming mouse assessed as reduction in ScPTZ-induced clonic seizure at 300 mg/kg, ip administered 0.5 hrs before ScPTZ stimulation relative to control; format: functional; parameters: scale not given: the % may be the effect or the level left
[23] = Neurotoxicity against ip dosed Kunming mouse assessed as time remained in rod measured at 0.5 hrs by rotarod test; format: toxicity, organism-based; conditions: in vivo
Mus musculus [24] = experiment: Anticonvulsant activity in Kunming mouse assessed as reduction in ScPTZ-induced seizure at 300 mg/kg, ip administered 0.25 to 2 hrs before ScPTZ stimulation relative to control; format: functional; parameters: scale not given: the % may be the effect or the level left
Mus musculus [25] = experiment: Anticonvulsant activity in ip dosed Kunming mouse assessed as reduction in ScPTZ-induced seizure administered 0.5 hrs before ScPTZ stimulation; format: functional
Mus musculus [26] = experiment: Anticonvulsant activity in ip dosed Kunming mouse assessed as MES-induced hind limb extension administered 0.5 hrs before MES stimulation; format: functional
Mus musculus [27] = experiment: Anticonvulsant activity in Kunming mouse assessed as reduction in ScPTZ-induced mortality rate at 300 mg/kg, ip administered 0.5 hrs before ScPTZ stimulation relative to control; format: functional; parameters: scale not given: the % may be the effect or the level left
Mus musculus [28] = experiment: Anticonvulsant activity in Kunming mouse assessed as MES-induced hind limb extension at 50 mg/kg, ip administered 0.5 and 2 hrs before MES stimulation relative to control; format: functional

| SMILES | Retention_time [1] | Activity (Mus musculus [2]) | inhibition (Homo sapiens [3]) | Activity (Mus musculus [4]) | Activity (Mus musculus [5]) | Activity [6] | inhibition (Homo sapiens [7]) | TD50 at 0.5 h [23] | ED50 (Mus musculus [26]) | also measured |
| --- | --- | --- | --- | --- | --- | --- | --- | --- | --- | --- |
| COc1cc(OC)c(OC)cc1/C=C/C(=O)O | 79.8 min |  |  |  |  |  |  |  |  |  |
| COc1cc(OC)c(OC)cc1/C=C/COC(=O)/C=C/c1cccc(F)c1 |  | Active | < 9% | Active | 25 - 100% | Non-Toxic | < 5% |  |  |  |
| COc1cc(OC)c(OC)cc1/C=C/COC(=O)/C=C/c1c(OC)cccc1OC |  | Active | inactive | Active | 25 - 100% | Non-Toxic | inactive |  |  |  |
| COc1cc(OC)c(OC)cc1/C=C/COC(=O)/C=C/c1cccc(OC)c1OC |  | Active | inactive | Active | 25 - 100% | Non-Toxic | inactive |  |  |  |
| COc1cc(OC)c(OC)cc1/C=C/COC(=O)/C=C/c1c(OC)c(OC)cc(OC)c1OC |  | Active | Active |  | 25 - 100% | Non-Toxic | Active | > 2110 µmol/kg and > 1000 mg/kg | 122 µmol/kg and 57.9 mg/kg | Activity (Mus musculus [8]): 25%; selectivity ratio at 0.5 h [9]: 19.7; ED50 (Mus musculus [10]): 50.8 mg/kg and 107 µmol/kg; Activity (Mus musculus [11]): 100%; Activity (Mus musculus [12]): 75%; selectivity ratio at 0.5 h [13]: 5; Activity (Mus musculus [14]): 100%; selectivity ratio at 0.5 h [15]: > 17.3; ED50 (Mus musculus [16]): > 300 mg/kg and > 632 µmol/kg; Activity (Mus musculus [17]): 50%; Activity (Mus musculus [18]): 75%; Activity (Mus musculus [19]): 25%; selectivity ratio at 0.5 h [20]: 6.7; Activity (Mus musculus [21]): 25%; Activity (Mus musculus [22]): 100%; Activity (Mus musculus [24]): 50%; ED50 (Mus musculus [25]): 149 mg/kg and 314 µmol/kg |
| COc1cc(OC)c(OC)cc1/C=C/COC(=O)/C=C/c1ccc(Br)cc1 |  | Active | < 9% | Active | 25 - 100% | Non-Toxic | < 5% | 2440 µmol/kg and 1060 mg/kg | 61.8 mg/kg and 143 µmol/kg | Activity (Mus musculus [8]): 100%; selectivity ratio at 0.5 h [9]: 10.1; ED50 (Mus musculus [10]): 105 mg/kg and 243 µmol/kg; Activity (Mus musculus [11]): 100%; Activity (Mus musculus [12]): 75%; selectivity ratio at 0.5 h [13]: 5; Activity (Mus musculus [14]): 100%; selectivity ratio at 0.5 h [15]: 17.1; ED50 (Mus musculus [16]): > 300 mg/kg and > 692 µmol/kg; Activity (Mus musculus [17]): 50%; Activity (Mus musculus [18]): 75%; Activity (Mus musculus [19]): 25%; selectivity ratio at 0.5 h [20]: 5.5; Activity (Mus musculus [21]): inactive; Activity (Mus musculus [22]): 100%; Activity (Mus musculus [27]): 0%; Activity (Mus musculus [24]): 50%; ED50 (Mus musculus [25]): 446 µmol/kg and 193 mg/kg |
| COc1cc(OC)c(OC)c(OC)c1/C=C/C(=O)O[C@@H]1O[C@H](C(=O)O)[C@@H](O)[C@H](O)[C@H]1O | 55.2 min |  |  |  |  |  |  |  |  |  |
| COc1cc(OC)c(OC)cc1/C=C/C(=O)O[C@@H]1O[C@H](C(=O)O)[C@@H](O)[C@H](O)[C@H]1O | 50.1 min |  |  |  |  |  |  |  |  |  |
| COc1cc(OC)c(OC)cc1/C=C/COC(=O)/C=C/c1ccccc1C(F)(F)F |  | Active | < 9% | Active | 25 - 100% | Non-Toxic | < 5% | > 2370 µmol/kg and > 1000 mg/kg | 85.7 mg/kg and 203 µmol/kg | Activity (Mus musculus [8]): 100%; selectivity ratio at 0.5 h [9]: > 8.1; ED50 (Mus musculus [10]): 123 mg/kg and 291 µmol/kg; Activity (Mus musculus [11]): 100%; selectivity ratio at 0.5 h [13]: 3.3; Activity (Mus musculus [14]): 100%; selectivity ratio at 0.5 h [15]: > 11.7; ED50 (Mus musculus [16]): > 300 mg/kg and > 710 µmol/kg; Activity (Mus musculus [18]): 75%; Activity (Mus musculus [19]): 50%; selectivity ratio at 0.5 h [20]: 5; Activity (Mus musculus [21]): inactive; Activity (Mus musculus [22]): 100%; Activity (Mus musculus [28]): inactive; Activity (Mus musculus [27]): 0%; Activity (Mus musculus [24]): 50%; ED50 (Mus musculus [25]): > 200 mg/kg and > 474 µmol/kg |
| COc1cc(OC)c(OC)c(OC)c1/C=C/C(=O)O | 81.4 min |  |  |  |  |  |  |  |  |  |
| COC[C@@H](NC(C)=O)C(=O)NCc1ccccc1 [LACOSAMIDE] |  |  |  |  |  |  |  | 135 µmol/kg | 37.6 µmol/kg and 9.4 mg/kg | selectivity ratio at 0.5 h [9]: 2.2; ED50 (Mus musculus [10]): 15 mg/kg and 0.1 µmol/kg; selectivity ratio at 0.5 h [20]: < 0.1; ED50 (Mus musculus [25]): > 500 mg/kg and > 2000 µmol/kg |
| COc1ccc(OC)c(/C=C/C(=O)OC/C=C/c2cc(OC)c(OC)cc2OC)c1 |  | Active |  | Active | 25 - 100% | Non-Toxic |  |  |  |  |
| COc1cc(OC)c(OC)cc1/C=C/CO | 67.5 min | Active |  |  |  | Non-Toxic |  | 3070 µmol/kg and 689 mg/kg | 277 µmol/kg and 62 mg/kg | selectivity ratio at 0.5 h [15]: 11.1 |
| COc1cc(OC)c(OC)cc1/C=C\C(=O)O | 78.7 min |  |  |  |  |  |  |  |  |  |
| COc1cc(OC)c(OC)cc1CCCOC(=O)/C=C/c1cc(OC)c(OC)c(OC)c1 |  | Active | 9% | Active | 25 - 100% | Non-Toxic | < 5% |  |  |  |
